Experimental data reported in patent US7030143B2, “Heterocyclic compounds” (Nippon Shinyaku Co., Ltd., priority 2000, dated 2006).

System: KK-A^y mice
Assay: Effects on carbohydrate and lipid metabolism in KK-A^y mouse
Type: in vivo
Details: oral, 4 days; for Percent change of each parameter compared to control group (%): AI: Atherogenic Index = (TC − HDL-C)/HDL-C; for Percent change of each parameter compared to control group (%): BG: plasma glucose level; for Percent change of each parameter compared to control group (%): Ins: plasma insulin level; for Percent change of each parameter compared to control group (%): TG: plasma triglyceride level; for Percent change of each parameter compared to control group (%): HDL-C: serum HDL-C level; for Percent change of each parameter compared to control group (%): (V)LDL-C: sum of VLDL-C and LDL-C level in serum
Description: The experiment was conducted using the compounds described in the Examples as test compounds and Troglitazone (5-[4-(6-hydroxy-2,5,7,8-tetramethylchroman-2-ylmethoxy)benzyl]-2,4-thiazolidinedione) as a control compound.
Each test compound was orally administered to KK-A^y mice (10 week old, male), NIDDM model animal, for 4 days at a given dosage. On the next day of the last administration, blood was collected from tail end blood vessels under non-fasting conditions to prepare heparinized plasma. Thereafter, blood was collected from an abdominal large vein under pentobarbital anesthesia to prepare serum. The glucose level (BG), triglyceride level (TG) and insulin level (Ins) in plasma were measured using a glucose CII-test Wako (Wako Pure Chemical Industries, Ltd), CLINTECH TG-S (IATORON LABORATORIES, INC.) or triglyceride E-test WAKO (Wako Pure Chemical Industries, Ltd), and a rat insulin measurement kit (Morinaga Biochemistry Research Institute) or REBIS-insulin-mouse-T (Mouse Insulin ELISA (TMB) KIT, Shibayagi Co., Ltd), respectively. Also, the sum of VLDL-C level and LDL-C level in serum (hereinafter, referred to as “(V)LDL-C”), total cholesterol level (TC) and HDL-C level were measured using a high performance liquid chromatography system for the measurement of lipoprotein cholesterol (TOSOH CORPORATION). (V)LDL-C level was measured because VLDL-C and LDL-C cannot be measured separately. Atherogenic Index (AI) was calculated according to the following formula: AI=[(TC level)−(HDL-C level)]/(HDL-C level).

| Structure (SMILES) | Percent change of each parameter compared to control group (%): AI (dose 1 mg/kg) | Percent change of each parameter compared to control group (%): BG (dose 1 mg/kg) | Percent change of each parameter compared to control group (%): Ins (dose 1 mg/kg) | Percent change of each parameter compared to control group (%): TG (dose 1 mg/kg) | Percent change of each parameter compared to control group (%): HDL-C (dose 1 mg/kg) | Percent change of each parameter compared to control group (%): (V)LDL-C (dose 1 mg/kg) | Percent change of each parameter compared to control group (%): AI (dose 3 mg/kg) | Percent change of each parameter compared to control group (%): BG (dose 3 mg/kg) | Percent change of each parameter compared to control group (%): Ins (dose 3 mg/kg) | Percent change of each parameter compared to control group (%): TG (dose 3 mg/kg) | Percent change of each parameter compared to control group (%): HDL-C (dose 3 mg/kg) | Percent change of each parameter compared to control group (%): (V)LDL-C (dose 3 mg/kg) | further results |
| --- | --- | --- | --- | --- | --- | --- | --- | --- | --- | --- | --- | --- | --- |
| Cc1oc(-c2ccccc2)nc1CCCCC1COC(C)(C(=O)O)OC1 (stereo not drawn) [Example 9, 2-Methyl-c-5-[4-(5-methyl-2-phenyloxazol-4-yl)butyl]-1,3-dioxane-r-2-carboxylic acid] | −49% | −12% | −36% | −46% | 36% | −29% | – | – | – | – | – | – | – |
| Cc1ccc(-c2nc(CCCCC3COC(C)(C(=O)O)OC3)c(C)o2)cc1 (stereo not drawn) [Example 11, 2-Methyl-c-5-{4-[5-methyl-2-(p-tolyl)oxazol-4-yl]butyl}-1,3-dioxane-r-2-carboxylic acid] | – | – | – | – | – | – | −91% | −36% | −16% | −83% | 11% | −89% | – |
| CC1(C(=O)O)OCC(CCCCc2coc(-c3ccccc3)n2)CO1 (stereo not drawn) [Example 14, 2-Methyl-c-5-[4-(2-phenyloxazol-4-yl)butyl]-1,3-dioxane-r-2-carboxylic acid] | −45% | −22% | −67% | −29% | 19% | −38% | – | – | – | – | – | – | – |
| Cc1oc(-c2ccc(C(C)(C)C)cc2)nc1CCCCC1COC(C)(C(=O)O)OC1 (stereo not drawn) [Example 18, c-5-{4-[2-(4-tert-Butylphenyl)-5-methyloxazol-4-yl]butyl}-2-methyl-1,3-dioxane-r-2-carboxylic acid] | – | – | – | – | – | – | −65% | −12% | −1% | −43% | 76% | −20% | – |
| Cc1oc(-c2ccc(C(F)(F)F)cc2)nc1CCCCC1COC(C)(C(=O)O)OC1 (stereo not drawn) [Example 20, 2-Methyl-c-5-{4-[5-methyl-2-(4-trifluoromethylphenyl)-oxazol-4-yl]butyl}-1,3-dioxane-r-2-carboxylic acid] | −44% | −15% | −44% | −31% | 30% | −33% | – | – | – | – | – | – | – |
| CCC1(C(=O)O)OCC(CCCCc2nc(-c3ccccc3)oc2C)CO1 (stereo not drawn) [Example 21, 2-Ethyl-c-5-[4-(5-methyl-2-phenyloxazol-4-yl)butyl]-1,3-dioxane-r-2-carboxylic acid] | – | – | – | – | – | – | −38% | −18% | −26% | −52% | 5% | −26% | – |
| Cc1ccc(-c2nc(CCCCCCOC(C)(C)C(=O)O)c(C)o2)cc1 [Example 37, 2-Methyl-2-{6-[5-methyl-2-(p-tolyl)oxazol-4-yl]hexyloxy}propionic acid] | – | – | – | – | – | – | −70% | −5% | −27% | −51% | 33% | −54% | – |
| Cc1oc(-c2ccccc2)nc1CC#CCCCOC(C)(C)C(=O)O [Example 38, 2-Methyl-2-[6-(5-methyl-2-phenyloxazol-4-yl)-4-hexynyloxy]propionic acid] | −65% | −21% | −39% | −50% | 38% | −38% | – | – | – | – | – | – | – |
| Cc1oc(-c2ccc(Cl)cc2)nc1CCCCCCOC(C)(C)C(=O)O [Example 39, 2-{6-[2-(4-Chlorophenyl)-5-methyloxazol-4-yl]hexyloxy}-2-methylpropionic acid] | −73% | −14% | −20% | −56% | 36% | −53% | – | – | – | – | – | – | – |
| Cc1oc(-c2ccccc2)nc1/C=C/CCC1COC(C)(C(=O)O)OC1 (stereo not drawn) [Example 53, 2-Methyl-c-5-[4-(5-methyl-2-phenyloxazol-4-yl)-(E)-3-butenyl]-1,3-dioxane-r-2-carboxylic acid] | – | – | – | – | – | – | −62% | −46% | −37% | −51% | 3% | −49% | – |
| Cc1oc(-c2ccccc2)nc1C/C=C/CCCOC(C)(C)C(=O)O [Example 54, Potassium 2-methyl-2-[6-(5-methyl-2-phenyloxazol-4-yl)-(E)-4-hexenyloxy]propionate] | −83% | −24% | −14% | −72% | 24% | −77% | – | – | – | – | – | – | – |
| Cc1oc(-c2ccccc2)nc1CCCCCCOC(C)(C)CO [Example 55, 2-Methyl-2-[6-(5-methyl-2-phenyloxazol-4-yl)hexyloxy]-propanol] | – | – | – | – | – | – | – | – | – | – | – | – | Percent change of each parameter compared to control group (%): AI (dose 10 mg/kg): −72%; Percent change of each parameter compared to control group (%): BG (dose 10 mg/kg): −22%; Percent change of each parameter compared to control group (%): Ins (dose 10 mg/kg): 2%; Percent change of each parameter compared to control group (%): TG (dose 10 mg/kg): −45%; Percent change of each parameter compared to control group (%): HDL-C (dose 10 mg/kg): 62%; Percent change of each parameter compared to control group (%): (V)LDL-C (dose 10 mg/kg): −44% |
| Cc1ccc(-c2nc(CCCCC3COC(C)(C(=O)O)OC3)c(C)o2)cc1F (stereo not drawn) [Example 64, 2-Methyl-c-5-{4-[5-methyl-2-(3-fluoro-4-methylphenyl)-oxazol-4-yl]butyl}-1,3-dioxane-r-2-carboxylic acid] | −72% | −12% | −20% | −53% | 21% | −63% | – | – | – | – | – | – | – |
